What was measured:
[1] = system: Human bone marrow CD34+ cells; assay: Megakaryocyte colony stimulating activity (megakaryocyte colony forming method); assay type: cell-based; conditions: 11 days, MegaCult-C, colonies of at least 8 stained megakaryocyte cells, average of at least 2 wells
Procedure: The action of the compounds of Synthetic Examples 2 to 6 of the present invention and Reference Synthetic Examples 6 to 7 on the proliferation, differentiation and maturation of megakaryocyte cells was measured by the megakaryocyte colony forming method using human bone marrow cells. Human bone marrow CD34^+ cells (Cambrex Bio Science Walkersville) were incubated on 2-well chamber slide for 11 days in a CO2 incubator (5% Co2, 37° C.) using MegaCult™-C (StemCell Technologies) containing 0.1% (v/v) of the compounds of Synthetic Examples dissolved in dimethyl sulfoxide. After dehydration and fixation, the cells were stained with an anti-glycoprotein IIb/IIIa antibody in accordance with the instruction by the manufacturer. The colonies consisting of at least 8 stained megakaryocyte cells in each well were counted under a microscope. The megakaryocyte colony counts in at least 2 wells were averaged.

[2] = Plasma concentration after oral administration to rats, determined by UT7/EPO-mpl proliferation bioassay; assay type: in vivo; conditions: rat, male Sprague-Dawley rats, 10 mg/kg, between 0.5 and 2 hours after administration, read-out: Cmax (maximum concentration in blood)
Procedure: Each of the compounds of Synthetic Examples was suspended in a 99/1 liquid mixture of 0.5% methylcellulose/Polyoxyethylene Sorbitan Monooleate and orally administered to 7-week-old male Sprague-Dawley rats (Japan SLC, Inc.) at a dose of 10 mg/kg/10 mL through a stomach tube. Between 0.5 and 2 hours after the administration of the compounds, blood was periodically collected from the cervical vein with heparin as the anticoagulant. The blood was centrifuged at 3500 min^−1 for 10 minutes to obtain plasma. The plasma was added to the assay system used for assay of proliferation of a thrombopoietin-dependent cell line UT7/EPO-mpl in Assay Example 1 at final concentrations of from 0.1 to 3%, and the cell proliferation was assayed. The concentration of each compound in plasma was calculated from the cell proliferation in the presence of plasma by comparison with a standard curve of cell proliferation versus compound concentration prepared for each compound. The maximum concentration (Cmax) of each of the compounds of Synthetic Examples in blood between 0.5 and 2 hours after the oral administration to rats is shown in Table 3.

SMILES | Colony count at 1 μg/mL [1] | Cmax [2]
COCCNC(=O)c1ccc(C(=O)NN=C(C)c2nn(C)c(-c3ccc(C(F)(F)F)cc3)c2O)s1 [Synthetic Example 5, 5-{1-[4-hydroxy-1-methyl-5-(4-trifluoromethylphenyl)-1H-pyrazol-3-yl]ethylidenehydrazinocarbonyl}thiophene-2-carboxylic Acid 2-methoxyethylamide] | 335 | 
C/C(=N\NC(=O)c1ccc(C(=O)O)s1)c1nn(C)c(-c2ccc(C(C)(C)C)cc2)c1O [Reference Synthetic Ex. 6, reference compound] | 1 | 
CCN(CC)C(=O)c1ccc(C(=O)NN=C(C)c2nn(C)c(-c3ccc(C(F)(F)F)cc3)c2O)s1.[K] [Synthetic Example 1, 5-{1-[4-hydroxy-1-methyl-5-(4-trifluoromethylphenyl)-1H-pyrazol-3-yl]ethylidenehydrazinocarbonyl}thiophene-2-carboxylic Acid Diethylamide Potassium Salt] |  | 760 ng/mL
CC(=NNC(=O)c1ccc(C(=O)NCc2ccccn2)s1)c1nn(C)c(-c2ccc(C(F)(F)F)cc2)c1O.[K] [Synthetic Example 2, 5-{1-[4-hydroxy-1-methyl-5-(4-trifluoromethylphenyl)-1H-pyrazol-3-yl]ethylidenehydrazinocarbonyl}thiophene-2-carboxylic Acid 2-picolylamide Potassium Salt] | 121 | 1200 ng/mL
CC(=NNC(=O)c1ccc(C(=O)NCc2ccncc2)s1)c1nn(C)c(-c2ccc(C(F)(F)F)cc2)c1O [Synthetic Example 4, 5-{1-[4-hydroxy-1-methyl-5-(4-trifluoromethylphenyl)-1H-pyrazol-3-yl]ethylidenehydrazinocarbonyl}thiophene-2-carboxylic Acid 4-picolyamide] | 111 | 
CC(=NNC(=O)c1ccc(C(=O)NC(C)C)s1)c1nn(C)c(-c2ccc(C(F)(F)F)cc2)c1O [Synthetic Example 3, 5-{1-[4-hydroxy-1-methyl-5-(4-trifluoromethylphenyl)-1H-pyrazol-3-yl]ethylidenehydrazinocarbonyl}thiophene-2-carboxylic Acid 2-propylamide] | 141 | 
CC(=NNC(=O)c1ccc(C(=O)NCc2ccncc2)s1)c1nn(C)c(-c2ccc(Cl)c(Cl)c2)c1O [Synthetic Example 6, 5-{1-[5-(3,4-dichlorophenyl)-4-hydroxy-1-methyl-1H-pyrazol-3-yl]ethylidenehydrazinocarbonyl}thiophene-2-carboxylic Acid 4-picolylamide] | 173 | 

From patent publication US7960425B2, “Pyrazole compounds and thrombopoietin receptor activators” (Nissan Chemical Industries, Ltd., priority 2005, dated 2011)
